Test results published in patent US8470811B2, “Substituted heterocyclylbenzylpyrazoles and use thereof” (Bayer Intellectual Property GmbH, priority 2010, dated 2013).

Experiments:
[1] = Pharmacokinetic parameters after intravenous administration in rats; assay type: in vivo; conditions: for half-life / clearance / Vd: rat, iv, 0.3-1.0 mg/kg, solution in plasma with up to 2% DMSO; for clearance: read-out: CLplasma (converted); for Vd: read-out: VSS
Experimental: (§1) The substance to be examined was administered to animals (for example mice or rats) intravenously as a solution (for example in corresponding plasma with a small addition of DMSO or in a PEG/ethanol/water mixture), and peroral administration was effected as a solution (for example in Solutol/ethanol/water or PEG/ethanol/water mixtures) or as a suspension (e.g. in tylose), in each case via a gavage. After administration of the substance, blood was taken from the animals at fixed times. The blood was heparinized, then plasma was obtained therefrom by centrifugation. The substance was quantified analytically in the plasma via LC-MS/MS. From the plasma concentration/time plots determined in this way, using an internal standard and with the aid of a validated computer program, the pharmacokinetic parameters, such as AUC (area under the concentration/time curve), Cmax (maximum plasma concentration), t1/2 (half life), VSS (distribution volume) and CL (clearance), and the absolute and relative bioavailability F and Frel (i.v./p.o. comparison or comparison of suspension to solution after p.o. administration), were calculated.
The substance to be examined was administered intravenously to rats, in each case in amounts between 0.3 and 1.0 mg/kg as a solution in plasma which contained up to 2% DMSO.

[2] = Pharmacokinetic parameters after peroral administration in rats; assay type: in vivo; conditions: for half-life: rat, plasma, po
Experimental: as §1
To determine the active ingredient release from a prodrug compound, the prodrug was administered either intravenously or perorally, as described above, and the concentrations both of the prodrug and of the active ingredient released were quantified in the processed plasma.
The substance to be examined was administered perorally to rats, in each case in amounts between 1 and 3 mg/kg as a solution in Solutol/ethanol/water (40:10:50 or 40:20:40). The kinetic parameters determined for Working Example 1 are shown below by way of example for the inventive compounds [AUCnorm=dose-normalized exposure (area under the concentration/time curve)]:
The second row in this table gives the pharmacokinetic parameters for Example 1, as obtained after peroral administration of the prodrug compound from Example 15 (1 mg/kg of crystalline substance as a tylose suspension in water).

[3] = pH-dependent hydrolysis stability; assay type: physicochemical
Experimental: 0.3 mg of the test substance (prodrug) was weighed into a 2 ml HPLC vial, and 0.6 ml of acetonitrile or acetonitrile/DMSO mixture (with up to 20 percent by volume of DMSO) was added. To dissolve the substance, the sample vessel was placed into an ultrasound bath for approx. 10 seconds. Subsequently, 1.0 ml of the particular aqueous buffer solution was added (commercially available buffer solutions of pH 2, 4, 6.5, 8 and 10) and the sample was treated again in the ultrasound bath. Over a period of 24 hours at 37° C., 5 μl of the sample solution were analysed by HPLC every hour for its content of unchanged prodrug or active ingredient released therefrom by hydrolysis. Quantification was effected via the area percentages of the corresponding HPLC peaks.

[4] = rats, 1-3 mg/kg, solution in Solutol/ethanol/water
[5] = rats, p.o., 1-3 mg/kg, solution in Solutol/ethanol/water

With `Cc1cc(-c2nc(-c3ccc(SC(F)(F)F)cc3)no2)nn1Cc1cccc(N2CCC(O)CC2)c1` [Example 14, 1-(3-{[5-Methyl-3-(3-{4-[(trifluoromethyl)sulphanyl]phenyl}-1,2,4-oxadiazol-5-yl)-1H-pyrazol-1-yl]methyl}phenyl)piperidin-4-ol] as the molecule, how does the half-life [1] read?
The half-life was 8.2 h.

What about the clearance [1] of the same molecule?
Its clearance is 12 mL/min/kg.

And the Vd [1]?
The Vd was 7.8 L/kg.

For `Cc1cc(-c2nc(-c3ccc(OC(F)(F)F)cc3)no2)nn1Cc1cccc(N2CC(OC(=O)CN(C)C)C2)c1` [Example 15, 1-{3-[(5-Methyl-3-{3-[4-(trifluoromethoxy)phenyl]-1,2,4-oxadiazol-5-yl}-1H-pyrazol-1-yl)methyl]phenyl}azetidin-3-yl N,N-dimethylglycinate], which “prodrug compound itself in the plasma of the rats” value ([2]; after p.o. administration of Example 15, 1 mg/kg tylose suspension, all times examined) is on record?
Its value is “not detectable”.

And the “% Example 15 prodrug” value ([3]; pH 2, 37° C., 12 h)?
The value was 89%.

And the “% Example 15 prodrug” value ([3]; pH 4, 37° C., 12 h)?
Its value is 89%.

What about the “% Example 15 prodrug” value ([3]; pH 6.5, 37° C., 0 h) of the same molecule?
The value was 94%.

And the “% Example 15 prodrug” value ([3]; pH 6.5, 37° C., 2 h)?
The value was 91%.

And the “% Example 15 prodrug” value ([3]; pH 6.5, 37° C., 4 h)?
The value was 87%.

And the “% Example 15 prodrug” value ([3]; pH 6.5, 37° C., 6 h)?
Its value is 84%.

And the “% Example 15 prodrug” value ([3]; pH 6.5, 37° C., 12 h)?
The value was 73%.

What about the “% Example 15 prodrug” value ([3]; pH 6.5, 37° C., 24 h) of the same molecule?
The value was 56%.

What about the “% Example 15 prodrug” value ([3]; pH 8, 37° C., 12 h) of the same molecule?
The value was 64%.

What about the “% Example 15 prodrug” value ([3]; pH 10, 37° C., 12 h) of the same molecule?
Its value is 0%.

And the “% Example 1 active ingredient” value ([3]; released from Example 15, pH 2, 37° C., 12 h)?
The value was 6%.

And the “% Example 1 active ingredient” value ([3]; released from Example 15, pH 4, 37° C., 12 h)?
Its value is 9%.

And the “% Example 1 active ingredient” value ([3]; released from Example 15, pH 6.5, 37° C., 0 h)?
Its value is 3%.

And the “% Example 1 active ingredient” value ([3]; released from Example 15, pH 6.5, 37° C., 2 h)?
Its value is 7%.

What about the “% Example 1 active ingredient” value ([3]; released from Example 15, pH 6.5, 37° C., 4 h) of the same molecule?
The value was 10%.

And the “% Example 1 active ingredient” value ([3]; released from Example 15, pH 6.5, 37° C., 6 h)?
Its value is 13%.

What about the “% Example 1 active ingredient” value ([3]; released from Example 15, pH 6.5, 37° C., 12 h) of the same molecule?
Its value is 22%.

What about the “% Example 1 active ingredient” value ([3]; released from Example 15, pH 6.5, 37° C., 24 h) of the same molecule?
Its value is 35%.

And the “% Example 1 active ingredient” value ([3]; released from Example 15, pH 8, 37° C., 12 h)?
The value was 30%.

What about the “% Example 1 active ingredient” value ([3]; released from Example 15, pH 10, 37° C., 12 h) of the same molecule?
Its value is 78%.

With `Cc1cc(-c2nc(-c3ccc(OC(F)(F)F)cc3)no2)nn1Cc1cccc(N2CC(O)C2)c1` [Example 1, 1-{3-[(5-Methyl-3-{3-[4-(trifluoromethoxy)phenyl]-1,2,4-oxadiazol-5-yl}-1H-pyrazol-1-yl)methyl]phenyl}azetidin-3-ol] as the molecule, how does the half-life [1] read?
The half-life was 6.8 h.

What about the clearance [1] of the same molecule?
Its clearance is 26.7 mL/min/kg.

What about the Vd [1] of the same molecule?
Its Vd is 12 L/kg.

What about the AUCnorm ([2]; Example 1 in rat plasma after p.o. administration of prodrug Example 15, 1 mg/kg crystalline substance as tylose suspension in water) of the same molecule?
Its AUCnorm is 0.35 kg·h/L.

What about the half-life [2, 4] of the same molecule?
Its half-life is 12 h.

What about the AUCnorm [2, 5] of the same molecule?
Its AUCnorm is 0.43 kg·h/L.

And the F [2, 5]?
Its F is 68%.

With `Cc1ccc(Cn2nc(-c3nc(-c4ccc(OC(F)(F)F)cc4)no3)cc2C)cc1` [Example 1 in WO 2008/141731-A2, 5-[5-methyl-1-(4-methylbenzyl)-1H-pyrazol-3-yl]-3-[4-(trifluoromethoxy)phenyl]-1,2,4-oxadiazole, reference compound] as the molecule, how does the CLplasma ([1]; intravenous administration) read?
The CLplasma was 0.4 I/h/kg.

And the half-life [1]?
The half-life was 30 h.

What about the Vd [1] of the same molecule?
Its Vd is 6.9 L/kg.

What about the half-life [2, 4] of the same molecule?
Its half-life is 29 h.

What about the AUCnorm [2, 5] of the same molecule?
The AUCnorm was 1.9 kg·h/L.

And the F [2, 5]?
The F was 74%.
